# According to PubChem BioAssay (NCI):
# “And” between values parts separate entries of the source, which are not always exact repeats. Equal entries are not always repeated.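 Values below derive from 48-hour exposures of cells grown in 96-well plates, with endpoints linearly interpolated between the two concentrations bracketing the appropriate inhibition level. GI50 = concentration required for 50% inhibition of growth. The concentration for full growth arrest is given as TGI.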
# Legend:
# Assay in all cases: NCI tumour cell line growth inhibition, 48 h
# NCI-H460 lung = system: NCI-H460 lung
# A549 NSCLC = system: A549 NSCLC
# CAKI-1 renal = system: CAKI-1 renal
# NCI/ADR-RES ovarian = system: NCI/ADR-RES ovarian
# KM12 colon = system: KM12 colon
# MOLT-4 leukemia = system: MOLT-4 leukemia
# RXF 393 renal = system: RXF 393 renal
# OVCAR-4 ovarian = system: OVCAR-4 ovarian
# HL-60(TB) leukemia = system: HL-60(TB) leukemia
# M14 melanoma = system: M14 melanoma
Structure (SMILES),GI50 (NCI-H460 lung),TGI (NCI-H460 lung),GI50 (A549 NSCLC),TGI (A549 NSCLC),GI50 (CAKI-1 renal),TGI (CAKI-1 renal),GI50 (NCI/ADR-RES ovarian),TGI (NCI/ADR-RES ovarian),GI50 (KM12 colon),TGI (KM12 colon),GI50 (MOLT-4 leukemia),TGI (MOLT-4 leukemia),GI50 (RXF 393 renal),TGI (RXF 393 renal),GI50 (OVCAR-4 ovarian),TGI (OVCAR-4 ovarian),GI50 (HL-60(TB) leukemia),GI50 (M14 melanoma),TGI (M14 melanoma),TGI (HL-60(TB) leukemia)
COC(=O)C1=Nc2ccc(F)cc2/C1=C/c1sc(=S)[nH]c1O,0.0804 µM,10.1 µM,0.254 µM,> 100 µM,0.097 µM,7 µM,0.0704 µM,11.5 µM,0.0734 µM,10.7 µM,0.236 µM,> 100 µM,0.0762 µM,4.1 µM,0.692 µM,23.8 µM,0.263 µM,0.0543 µM,> 100 µM,
CC1(C)N=C(N)N=C(N)N1c1ccc(OCCCCNC(=O)Nc2cccc(S(=O)(=O)F)c2)c(Cl)c1,0.377 µM,25.3 µM,2.27 µM,> 100 µM,35.4 µM,> 100 µM,> 100 µM,> 100 µM,2.64 µM,> 100 µM,4.08 µM,> 100 µM,0.735 µM,> 100 µM,13.3 µM,> 100 µM,0.61 µM,3.96 µM,> 100 µM,> 100 µM
CC/C(=C(/c1ccc(/C=C/C(=O)O)cc1)c1ccc2[nH]ncc2c1)c1ccc(F)cc1Cl,10.7 µM,27.7 µM,8.58 µM,25.1 µM,11.9 µM,25.6 µM,9.08 µM,26.5 µM,6.79 µM,21.5 µM,11.3 µM,37.3 µM,5.31 µM,16.3 µM,12 µM,27.9 µM,9.3 µM,7.84 µM,27.1 µM,31 µM
CN(C)CCS(=O)(=O)Nc1cc(-c2ccc3ncnc(Nc4ccc(F)c(Cl)c4)c3c2)cnc1Cl,1.04 µM,> 100 µM,0.803 µM,3.26 µM,,,3.32 µM,> 100 µM,1.46 µM,4.25 µM,0.257 µM,0.69 µM,0.256 µM,1.22 µM,1.29 µM,> 100 µM,1.33 µM,0.655 µM,> 35.4 µM,9.15 µM
Cc1cc2c(cc1C)[n+](=O)c(C(=O)/C=C/c1ccccc1[N+](=O)[O-])c(C)n2[O-],,> 100 µM,,> 100 µM,,> 97.7 µM,,> 100 µM,,> 100 µM,,> 100 µM,,46.2 µM,,> 100 µM,,,> 100 µM,> 100 µM
CCC1=C(c2ccc(OC)cc2)CC[C@]2(CCNC2=O)[C@@H]1C,,> 85.9 µM,,> 100 µM,,> 89.7 µM,,> 92.2 µM,,> 91.7 µM,,39.7 µM,,> 100 µM,,69.5 µM,,,62.7 µM,69.2 µM
N=C(N)c1ccc(OCCCCCOc2ccc(C(=N)N)cc2)cc1,1.68 µM,9 µM and 17.4 µM and 18.3 µM,0.83 µM,> 50 µM and 37.1 µM and > 100 µM,10.3 µM,> 100 µM,27.3 µM,> 100 µM,2.5 µM and 6.35 µM and 14.3 µM,14.3 µM and 20.9 µM and 31 µM,23.3 µM and 12 µM and 28.3 µM,> 50 µM and 51.8 µM and > 100 µM,6.75 µM,17.5 µM and 38.6 µM,3.6 µM,18.7 µM and 35.4 µM and 53.5 µM,7.34 µM,5.63 µM,17.2 µM and 31.8 µM and 31.9 µM,24 µM and 56 µM and > 100 µM
CC(C)c1cc(C(C)C)c(Cl)c(Cl)c1O (tested in a mixture with another compound),,> 100 µM,,> 100 µM,,47 µM,,> 100 µM,,58.1 µM,,,,32.5 µM,,,,,> 100 µM,36 µM
Nc1ccn([C@@H]2S[C@H](CO)[C@@H](O)[C@@H]2F)c(=O)n1,0.138 µM,> 100 µM,0.161 µM,> 100 µM,0.0412 µM,> 100 µM,0.0325 µM,> 100 µM,8.65 µM,> 100 µM,0.0304 µM,> 100 µM,0.289 µM,> 22.4 µM,> 100 µM,> 100 µM,0.0792 µM,0.0616 µM,0.842 µM,
O=CC(O)C(O)C(OC1OC(CO)C(O)C(O)C1O)C(O)CO (stereo not given) (tested in a mixture with another compound),,> 100 µM,,> 100 µM,,> 100 µM,,> 100 µM,,50.8 µM,,,,> 100 µM,,> 100 µM,,,> 100 µM,64.1 µM
CCN(CC)C(=O)CCCCCn1c2ccccc2c2c3c(c4c5ccccc5[nH]c4c21)C(=O)N(O)C3=O,3.62 µM,15.4 µM,21.8 µM,98.4 µM,,,3.4 µM,> 100 µM,3.31 µM,14.7 µM,2.05 µM,6.13 µM,4.01 µM,> 100 µM,5.06 µM,> 100 µM,2.8 µM,4.49 µM,39.3 µM,7.63 µM
COc1cc2c(cc1OC)C(SC)C(=O)N(Cc1cccc(OC)c1OC)CC2 (stereo not given),,28.8 µM,,> 82.7 µM,,> 88.5 µM,,88.8 µM,,40.3 µM,,45.5 µM,,> 48.1 µM,,98.5 µM,,,26.5 µM,5.63 µM
CN1CC[C@]23c4c5ccc(O)c4OC2c2[nH]ncc2C[C@H]3[C@H]1C5 (stereo not given in full),,> 100 µM,,> 100 µM,,> 100 µM,,> 100 µM,,> 100 µM,,> 100 µM,,> 100 µM,,> 100 µM,,,> 100 µM,> 100 µM
Cn1c(CC(O)c2nc3ccccc3n2C)nc2ccccc21 (stereo not given),,> 46.9 µM,,> 100 µM,,> 100 µM,,> 67.9 µM,,> 100 µM,,> 27.9 µM,,> 39.4 µM,,> 30.1 µM,,,> 49.8 µM,4.13 µM
Cc1ccc(O)cc1Nc1ccnc2cc(-c3ccccn3)ccc12,3.65 µM,7.4 µM,3.8 µM,8.39 µM,1.05 µM,4.36 µM,4.49 µM,15.3 µM,3.01 µM,6.57 µM,4.18 µM,10.7 µM,1.95 µM,5.37 µM,1.82 µM,11.7 µM,4.69 µM,3.24 µM,7.51 µM,9.53 µM
Cc1nn2c(-c3nc4cc(Cl)c(Cl)cc4[nH]3)c(-c3ccc(F)cc3)nc2s1,1.75 µM,> 33.8 µM,1.92 µM,> 42.3 µM,7.09 µM,> 59.4 µM,2.7 µM,> 30.3 µM,,,> 100 µM,> 100 µM,1.84 µM,5.41 µM,0.257 µM,0.781 µM,> 100 µM,5.94 µM,> 100 µM,> 100 µM
CCc1c(C#N)c(SC(C(N)=O)c2ccccc2)nc(N2CCC(N)CC2)c1C#N (stereo not given),16.1 µM,30.7 µM,18.4 µM,44.2 µM,14.7 µM,28.6 µM,> 100 µM,> 100 µM,15.9 µM,31.4 µM,11.5 µM,31.2 µM,10.4 µM,22.7 µM,15.5 µM,34.3 µM,10.2 µM,16.2 µM,30.6 µM,25.9 µM
CN(C)c1ccc2c(c1)OC(N)=C(C#N)C2c1ccc2c(c1)CCCN2C (stereo not given),1.92 µM,24.9 µM,2.03 µM,> 100 µM,3.33 µM,> 100 µM,1.12 µM,9.08 µM,0.783 µM,> 100 µM,3.38 µM,24.5 µM,1.43 µM,5.58 µM,5.01 µM,> 100 µM,2.81 µM,1.29 µM,18.5 µM,8.7 µM
Oc1ccc(-c2[nH]c3ccccc3c2-c2nc3ccccc3o2)cc1,3.24 µM,11.5 µM,3.15 µM,11.4 µM,2.62 µM,14.2 µM,2.63 µM,9.04 µM,2.05 µM,6.95 µM,6.49 µM,41.3 µM,4.24 µM,18.9 µM,2.14 µM,14.7 µM,12.1 µM,3.26 µM,13.8 µM,49.5 µM
NCC(Cc1ccccc1)P(=O)(O)O (stereo not given),,> 100 µM,,> 100 µM,,> 100 µM,,> 100 µM,,> 100 µM,,> 100 µM,,> 100 µM,,> 100 µM,,,> 100 µM,> 100 µM
O=C1C2C(C(=O)N1CC[Se][Se]CCN1C(=O)C3C(C1=O)[C@H]1C=C[C@@H]3C1)[C@H]1C=C[C@@H]2C1 (stereo not given in full),0.361 µM,1.69 µM,0.447 µM,4.72 µM,0.301 µM,0.828 µM,0.561 µM,3.54 µM,1.35 µM,10.2 µM,0.41 µM,6.68 µM,0.338 µM,1.11 µM,1.04 µM,4.52 µM,0.209 µM,0.332 µM,1.97 µM,0.477 µM
CCN(CCNc1ccc(C)c2sc3cc(Cl)ccc3c(=O)c12)CC(C)(C)O,2.33 µM,5 µM,5.2 µM,19.5 µM,1.51 µM,4.9 µM,6.37 µM,30.5 µM,2.32 µM,5.54 µM,15.5 µM,73.7 µM,2.3 µM,5.4 µM,24.6 µM,> 100 µM,12.2 µM,1.95 µM,4.01 µM,44.7 µM
Nc1c(C(=O)Nc2ccccn2)sc2nc3c(cc12)CCCCCC3,1.12 µM,6.62 µM,1.65 µM,9.17 µM,1.56 µM,9.33 µM,0.57 µM,41.4 µM,0.511 µM,> 50 µM,0.392 µM,> 50 µM,0.903 µM,4.07 µM,4.21 µM,15.8 µM,0.14 µM,0.295 µM,3.05 µM,1.43 µM
O=[N+]([O-])c1ccc(/C=C\c2ccc3c(c2)OCO3)c([N+](=O)[O-])c1,,54.5 µM,,73.8 µM,,92 µM,,81.6 µM,,54 µM,,33.8 µM,,7.76 µM,,,,,31.1 µM,39 µM
O=C(/C=C/c1cccc(Oc2ccc(Cl)cc2)c1)c1ccccc1,60.1 µM,208 µM,138 µM,298 µM,,,37.1 µM,232 µM,34.9 µM,125 µM,30.8 µM,,44.2 µM,152 µM,75 µM,234 µM,23.4 µM,53.1 µM,241 µM,58.4 µM
O=C1c2ccccc2-c2c1c1ccc([N+](=O)[O-])cc1c(=O)n2CCCCl,2.61 µM,67.5 µM,> 100 µM,> 100 µM,2.45 µM,> 100 µM,24.1 µM,> 100 µM,> 100 µM,> 100 µM,2.1 µM,> 100 µM,> 100 µM,> 100 µM,,,52.4 µM,47 µM,> 100 µM,> 100 µM
Cc1n(Cc2ccc3ccccc3n2)cc[n+]1Cc1ccc2ccccc2c1,0.659 µM,11.2 µM,1.34 µM,13.4 µM,,,> 100 µM,> 100 µM,0.488 µM,3.8 µM,0.948 µM,10.6 µM,3.59 µM,17.4 µM,0.342 µM,11.3 µM,0.344 µM,1.13 µM,10.7 µM,1.46 µM
C=C(C)[C@@H]1CC[C@]2(C(=O)n3ccnc3)CC[C@]3(C)[C@H](CC[C@@H]4[C@@]5(C)CCCNC(C)(C)[C@@H]5CC[C@]43C)[C@@H]12,1.76 µM,3.4 µM,1.94 µM,3.62 µM,,,1.7 µM,3.66 µM,1.68 µM,3.11 µM,,,1.5 µM,2.92 µM,,,1.55 µM,1.6 µM,3.1 µM,3.47 µM
